Laboratory results as given in patent publication US9867826B2, “Heterocycles as modulators of kinase activity” (Merck Patent GmbH, priority 2013, dated 2018).

What was measured:
P70S6K (T412E mutant) = P70S6K (T412E mutant) (Homo sapiens (Human), UniProt P23443, T412E); test: P70S6K enzyme assay; type: biochemical; conditions: 24 μM ATP
Protocol: P70S6K inhibitor compounds were diluted and plated in 96 well plates. A reaction mixture including the following components was then added to the compound plate to initiate the enzyme reaction; P70S6K (3 nM, T412E mutant, Millipore) was mixed with 24 μM ATP in an assay buffer containing 100 mM Hepes (pH 7.5), 5 mM MgCl2, 1 mM DTT, 0.015% Brij and 1 μM of the substrate peptide FITC-AHA-AKRRRLSSLRA-OH (derived from the S6 ribosomal protein sequence, FITC=fluorescein isothiocyanate, AHA=6-aminohexanoic acid). The reaction was incubated for 90 min at 25° C., before the addition of 10 mM EDTA to stop the reaction. The proportion of substrate and product (phosphorylated) peptide was analysed on a Caliper Life Sciences Lab Chip 3000, using a pressure of −1.4 psi, and upstream and downstream voltages of −3000 and −700 respectively. Product peaks were resolved before substrate peaks on the resulting chromatograms.

His-AKT (Full Length) = His-AKT (Full Length) (Homo sapiens (Human), UniProt P31749); test: AKT enzyme assay; type: biochemical; conditions: 160 uM ATP
Chain of His-AKT (Full Length) (P31749 whole entry): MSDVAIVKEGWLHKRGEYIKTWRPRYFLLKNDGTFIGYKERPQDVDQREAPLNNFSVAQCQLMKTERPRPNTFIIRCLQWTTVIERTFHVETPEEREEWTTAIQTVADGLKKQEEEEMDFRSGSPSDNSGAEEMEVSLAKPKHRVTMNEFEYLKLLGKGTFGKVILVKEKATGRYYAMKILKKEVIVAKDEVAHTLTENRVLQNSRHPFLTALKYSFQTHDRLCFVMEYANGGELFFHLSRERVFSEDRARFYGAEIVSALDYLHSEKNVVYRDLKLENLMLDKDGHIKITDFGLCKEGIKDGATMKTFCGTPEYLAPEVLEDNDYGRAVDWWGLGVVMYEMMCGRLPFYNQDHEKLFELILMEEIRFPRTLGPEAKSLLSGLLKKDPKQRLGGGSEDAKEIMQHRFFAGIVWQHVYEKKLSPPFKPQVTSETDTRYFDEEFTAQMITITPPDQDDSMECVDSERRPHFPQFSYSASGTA
Protocol: A TTP Mosquito liquid handling instrument was used to place 125 nl of the appropriate concentration of inhibitor in 100% DMSO (for a dose response curve calculation) into each well of a 384-well plate. To this reaction components were added to a final volume of 12.5 μl: • 0.1 ng/μl His-AKT (Full Length), (Invitrogen, Part # P2999, Lot #641228C). • 160 uM ATP (Fluka, 02055) • 1 mM DTT (Sigma, D0632) • 1 mM MgCl2 (Sigma, M1028) • 1 μM substrate peptide (sequence FITC-AHA-GRPRTSSFAEG-NH2), synthesized by Tufts Peptide Synthesis service. • 100 mM HEPES pH 7.5 (Calbiochem, 391338) • 0.015% Brij-35 (Sigma, B4184)
The reaction was incubated for 90 min at 25 C., and then stopped by the addition of 70 μl of Stop buffer (100 mM HEPES pH 7.5, 0.015% Brij-35, 10 mM EDTA (Sigma, E7889)).
The plate was read on a Caliper LC 3000 in an Off-Chip mobility shift assay format, using the following parameters for a 12-sipper chip: screening pressure −2.3 psi, upstream voltage −500, and downstream voltage −3000. These conditions caused unphosphorylated substrate and phosphorylated product peptide to resolve as separate peaks allowing direct measurement of percentage of conversion of substrate to product.
The percent conversion was plotted against concentration of inhibitor to produce a sigmoidal dose response curve, from which an IC50 was calculated.

Chain of P70S6K (T412E mutant) (P23443 whole entry T412E): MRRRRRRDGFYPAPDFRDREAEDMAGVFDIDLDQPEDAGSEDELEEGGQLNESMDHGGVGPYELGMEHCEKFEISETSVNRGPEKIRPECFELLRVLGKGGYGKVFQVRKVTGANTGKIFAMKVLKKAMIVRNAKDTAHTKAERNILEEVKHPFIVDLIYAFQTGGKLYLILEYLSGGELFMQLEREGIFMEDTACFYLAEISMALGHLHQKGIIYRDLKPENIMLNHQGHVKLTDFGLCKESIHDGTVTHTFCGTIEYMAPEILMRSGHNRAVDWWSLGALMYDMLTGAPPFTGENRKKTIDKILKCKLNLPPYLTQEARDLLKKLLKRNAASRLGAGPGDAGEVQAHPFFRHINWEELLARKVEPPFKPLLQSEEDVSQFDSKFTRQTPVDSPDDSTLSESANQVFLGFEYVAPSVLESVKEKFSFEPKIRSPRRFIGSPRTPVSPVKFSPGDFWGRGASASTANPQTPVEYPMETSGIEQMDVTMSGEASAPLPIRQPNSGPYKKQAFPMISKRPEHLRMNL

SMILES | IC50 (P70S6K (T412E mutant)) | IC50 (His-AKT (Full Length))
N#Cc1c(N)ncnc1N1CC[C@@H](c2nc(-c3ccc(F)c(C(F)(F)F)c3)cn2CCN2CCC2)[C@@H](F)C1 (racemic) [Compound 1, 4-Amino-6-{3,4-cis-4-[1-(2-azetidin-1-yl-ethyl)-4-(4-fluoro-3-trifluoromethyl-phenyl)-1H-imidazol-2-yl]-3-fluoro-piperidin-1-yl}-pyrimidine-5-carbonitrile] | < 1 nM | < 1 nM
NC(=O)c1c(N)ncnc1N1CC[C@@H](c2nc(-c3ccc(F)c(C(F)(F)F)c3)cn2CCN2CCC2)[C@@H](F)C1 (racemic) [Compound 2, 4-Amino-6-{3,4-cis-4-{1-(2-azetidin-1-yl-ethyl)-4-(4-fluoro-3-trifluoromethyl-phenyl)-1H-imidazol-2-yl}-3-fluoro-piperidin-1-yl}-pyrimidine-5-carboxamide] | < 1 nM | < 1 nM
C[C@H]1CN(c2ncnc(N)c2C#N)CC[C@H]1c1nc(-c2ccc(F)c(C(F)(F)F)c2)cn1CCN1CCC1 (racemic) [Compound 5, 4-Amino-6-{3,4-cis-4-[1-(2-azetidin-1-yl-ethyl)-4-(4-fluoro-3-trifluoromethyl-phenyl)-1H-imidazol-2-yl]-3-methyl-piperidin-1-yl}-pyrimidine-5-carbonitrile] | 1 to 10 nM | > 10 nM
C[C@H]1CN(c2ncnc(N)c2C(N)=O)CC[C@H]1c1nc(-c2ccc(F)c(C(F)(F)F)c2)cn1CCN1CCC1 (racemic) [Compound 6, 4-Amino-6-{3,4-cis-4-[1-(2-azetidin-1-yl-ethyl)-4-(4-fluoro-3-trifluoromethyl-phenyl)-1H-imidazol-2-yl]-3-methyl-piperidin-1-yl}-pyrimidine-5-carboxamide] | > 10 nM | > 10 nM
N#Cc1c(N)ncnc1N1CC[C@H](c2nc(-c3ccc(F)c(C(F)(F)F)c3)cn2CCN2CCC2)[C@@H](F)C1 (racemic) [Compound 7, 4-amino-6-{3,4-trans-4-[1-(2-azetidin-1-yl-ethyl)-4-(4-fluoro-3-trifluoromethyl-phenyl)-1H-imidazol-2-yl]-3-fluoro-piperidin-1-yl}-pyrimidine-5-carbonitrile] | 1 to 10 nM | > 10 nM
NC(=O)c1c(N)ncnc1N1CC[C@@H](c2nc(-c3ccc(F)c(C(F)(F)F)c3)cn2CCN2CCC2)[C@H](F)C1 (racemic) [Compound 8, 4-Amino-6-{3,4-trans-4-[1-(2-azetidin-1-yl-ethyl)-4-(4-fluoro-3-trifluoromethyl-phenyl)-1H-imidazol-2-yl]-3-fluoro-piperidin-1-yl}-pyrimidine-5-carboxamide] | 1 to 10 nM | > 10 nM
Cc1cc(-c2cn(CCN(C)C)c([C@@H]3CCN(c4ncnc(N)c4C#N)C[C@@H]3F)n2)ccc1F (racemic) [Compound 9] | 1 to 10 nM | 1 to 10 nM
Nc1ncnc(N2CC[C@@H](c3nc(-c4ccc(F)c(C(F)(F)F)c4)cn3CCN3CCC3)[C@@H](F)C2)c1Cl (racemic) [Compound 10, 6-{3,4-cis-4-[1-(2-Azetidin-1-yl-ethyl)-4-(4-fluoro-3-trifluoromethyl-phenyl)-1H-imidazol-2-yl]-3-fluoro-piperidin-1-yl}-5-chloro-pyrimidin-4-ylamine] | < 1 nM | < 1 nM
Nc1ncnc(N2CC[C@@H](c3nc(-c4ccc(F)c(C(F)(F)F)c4)cn3CCN3CCC3)[C@H](F)C2)c1Cl (racemic) [Compound 11, 6-{3,4-trans-4-[1-(2-Azetidin-1-yl-ethyl)-4-(4-fluoro-3-trifluoromethyl-phenyl)-1H-imidazol-2-yl]-3-fluoro-piperidin-1-yl}-5-chloro-pyrimidin-4-ylamine] | 1 to 10 nM | 1 to 10 nM
Cc1cc(-c2cn(CCN(C)C)c([C@H]3CCN(c4ncnc(N)c4Cl)C[C@H]3F)n2)ccc1F (racemic) [Compound 12, 5-chloro-6-{3,4-cis-4-[1-(2-dimethylamino-ethyl)-4-(4-fluoro-3-methyl-phenyl)-1H-imidazol-2-yl]-3-fluoro-piperidin-1-yl}-pyrimidin-4-ylamine] | 1 to 10 nM | 1 to 10 nM
CCc1c(N)ncnc1N1CC[C@@H](c2nc(-c3ccc(F)c(C(F)(F)F)c3)cn2CCN2CCC2)[C@@H](F)C1 (racemic) [Compound 13, 6-{3,4-cis-4-[1-(2-Azetidin-1-yl-ethyl)-4-(4-fluoro-3-trifluoromethyl-phenyl)-1H-imidazol-2-yl]-3-fluoro-piperidin-1-yl}-5-ethyl-pyrimidin-4-ylamine] | 1 to 10 nM | 1 to 10 nM
CN(C)CCn1cc(-c2ccc(F)c(C(F)(F)F)c2)nc1[C@@H]1CCN(c2ncnc(N)c2C#N)C[C@@H]1F (racemic) [Compound 14, 4-Amino-6-{3,4-cis-4-[1-(2-dimethylamino-ethyl)-4-(4-fluoro-3-trifluoromethyl-phenyl)-1H-imidazol-2-yl]-3-fluoro-piperidin-1-yl}-pyrimidine-5-carbonitrile] | 1 to 10 nM | 1 to 10 nM
CN(C)CCn1cc(-c2ccc(F)c(C(F)(F)F)c2)nc1[C@@H]1CCN(c2ncnc(N)c2C(N)=O)C[C@@H]1F (racemic) [Compound 15] | 1 to 10 nM | > 10 nM
CCOc1c(N)ncnc1N1CC[C@@H](c2nc(-c3ccc(F)c(C(F)(F)F)c3)cn2CCN2CCC2)[C@@H](F)C1 (racemic) [Compound 16, 6-{3,4-cis-4-[1-(2-Azetidin-1-yl-ethyl)-4-(4-fluoro-3-trifluoromethyl-phenyl)-1H-imidazol-2-yl]-3-fluoro-piperidin-1-yl}-5-ethoxy-pyrimidin-4-ylamine] | 1 to 10 nM | 1 to 10 nM
CC(C)c1c(N)ncnc1N1CC[C@@H](c2nc(-c3ccc(F)c(C(F)(F)F)c3)cn2CCN(C)C)[C@@H](F)C1 (racemic) [Compound 17, 6-{cis-4-[1-(2-Dimethylamino-ethyl)-4-(4-fluoro-3-trifluoromethyl-phenyl)-1H-imidazol-2-yl]-3-fluoro-piperidin-1-yl}-5-isopropyl-pyrimidin-4-ylamine] | 1 to 10 nM | > 10 nM
Cc1cc(-c2cn(CCN3CCC3)c([C@@H]3CCN(c4ncnc(N)c4C#N)C[C@@H]3F)n2)ccc1F (racemic) [Compound 18, 4-Amino-6-{cis-4-[1-(2-azetidin-1-yl-ethyl)-4-(4-fluoro-3-methyl-phenyl)-1H-imidazol-2-yl]-3-fluoro-piperidin-1-yl}-pyrimidine-5-carbonitrile] | 1 to 10 nM | 1 to 10 nM
Cc1cc(-c2cn(CCN3CCC3)c([C@@H]3CCN(c4ncnc(N)c4C(C)C)C[C@@H]3F)n2)ccc1F (racemic) [Compound 24, 6-{cis-4-[1-(2-Azetidin-1-yl-ethyl)-4-(4-fluoro-3-methyl-phenyl)-1H-imidazol-2-yl]-3-fluoro-piperidin-1-yl}-5-isopropyl-pyrimidin-4-ylamine] | 1 to 10 nM | 1 to 10 nM
CN(C)CCn1cc(-c2ccc(F)c(C(F)(F)F)c2)nc1[C@@H]1CCN(c2ncnc(N)c2Cl)C[C@@H]1F (racemic) [Compound 25] | 1 to 10 nM | 1 to 10 nM
CC(C)c1c(N)ncnc1N1CC[C@@H](c2nc(-c3ccc(F)c(C(F)(F)F)c3)c[nH]2)[C@@H](F)C1 (racemic) [Compound 26, 6-{cis-3-Fluoro-4-[4-(4-fluoro-3-trifluoromethyl-phenyl)-1H-imidazol-2-yl]-piperidin-1-yl}-5-isopropyl-pyrimidin-4-ylamine] | 1 to 10 nM | > 10 nM
CC(C)c1c(N)ncnc1N1CC[C@@H](c2nc(-c3ccc(F)c(C(F)(F)F)c3)cn2CCN)[C@@H](F)C1 (racemic) [Compound 33, 6-{cis-4-[1-(2-Amino-ethyl)-4-(4-fluoro-3-trifluoromethyl-phenyl)-1H-imidazol-2-yl]-3-fluoro-piperidin-1-yl}-5-isopropyl-pyrimidin-4-ylamine] | 1 to 10 nM | 1 to 10 nM
NCCn1cc(-c2ccc(F)c(C(F)(F)F)c2)nc1[C@@H]1CCN(c2ncnc(N)c2Cl)C[C@@H]1F (racemic) [Compound 36] | 1 to 10 nM | 1 to 10 nM
Cc1cc(-c2cn(CCNC(C)C)c([C@@H]3CCN(c4ncnc(N)c4C(C)C)C[C@@H]3F)n2)ccc1F (racemic) [Compound 37, 6-{cis-3-Fluoro-4-[4-(4-fluoro-3-methyl-phenyl)-1-(2-isopropylamino-ethyl)-1H-imidazol-2-yl]-piperidin-1-yl}-5-isopropyl-pyrimidin-4-ylamine] | 1 to 10 nM | 1 to 10 nM
